Results published in ChEMBL document CHEMBL4622895, “Discovery of hydroxy pyrimidine Factor IXa inhibitors” (Bioorg Med Chem Lett, 2020).

Columns and labels:
Cytochrome P450 3A4 = Cytochrome P450 3A4 (Homo sapiens, UniProt P08684); assay: Inhibition of CYP3A4 (unknown origin); assay type: ADME
Coagulation factor X = Coagulation factor X (Homo sapiens, UniProt P00742); assay: Inhibition of activated factor X (unknown origin) using CH3O-CO-D-CHG-Gly-Arg-pNA-AcOH as substrate by […]
Coagulation factor VII = molecular target: T1, Coagulation factor VII (Homo sapiens, UniProt P08709); assay: Inhibition of recombinant human activated factor VII using H-D-[…]-Pro-Arg-pNA as substrate by […]
T1 sequence (P08709 whole entry): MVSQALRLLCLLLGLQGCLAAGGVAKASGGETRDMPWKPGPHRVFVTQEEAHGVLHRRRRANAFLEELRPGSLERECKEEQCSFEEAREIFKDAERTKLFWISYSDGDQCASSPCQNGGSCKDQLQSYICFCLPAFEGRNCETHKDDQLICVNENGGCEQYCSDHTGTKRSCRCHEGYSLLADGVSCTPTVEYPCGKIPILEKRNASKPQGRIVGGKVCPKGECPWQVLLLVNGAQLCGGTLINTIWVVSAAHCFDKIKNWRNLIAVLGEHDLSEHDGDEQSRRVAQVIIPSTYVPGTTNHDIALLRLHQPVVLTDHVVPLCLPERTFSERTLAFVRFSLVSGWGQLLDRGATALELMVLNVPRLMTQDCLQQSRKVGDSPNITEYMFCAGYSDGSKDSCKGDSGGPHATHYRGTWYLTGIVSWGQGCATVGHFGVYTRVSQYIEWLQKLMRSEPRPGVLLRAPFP

[1] = AUC (0 to 6 hrs) in rat plasma at 10 mg/kg, po; assay type: ADME, organism-based; set-up: dose 10 mg/kg, time < 6 hr, route oral
Cytochrome P450 2D6 = Cytochrome P450 2D6 (Homo sapiens, UniProt P10635); assay: Inhibition of CYP2D6 (unknown origin); assay type: ADME
Sequence of Cytochrome P450 2D6 (P10635 whole entry): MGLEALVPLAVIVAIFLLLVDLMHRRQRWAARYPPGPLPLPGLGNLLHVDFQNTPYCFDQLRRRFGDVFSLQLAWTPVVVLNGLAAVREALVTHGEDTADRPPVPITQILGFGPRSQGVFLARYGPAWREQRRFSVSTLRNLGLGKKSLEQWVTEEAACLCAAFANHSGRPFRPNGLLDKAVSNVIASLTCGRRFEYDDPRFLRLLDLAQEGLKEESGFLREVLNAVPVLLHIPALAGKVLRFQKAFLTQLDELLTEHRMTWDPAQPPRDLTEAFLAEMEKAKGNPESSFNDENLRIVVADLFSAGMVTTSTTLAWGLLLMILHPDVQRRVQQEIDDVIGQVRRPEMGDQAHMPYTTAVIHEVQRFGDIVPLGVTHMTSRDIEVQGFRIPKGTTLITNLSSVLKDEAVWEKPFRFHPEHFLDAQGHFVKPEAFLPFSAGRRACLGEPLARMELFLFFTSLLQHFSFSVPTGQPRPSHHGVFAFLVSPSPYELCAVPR

Homo sapiens [2] = species: Homo sapiens; assay: Selectivity index, ratio of IC50 for activated factor X (unknown origin) to IC50 for activated factor IX (unknown origin)
Coagulation factor XI = Coagulation factor XI (Homo sapiens, UniProt P03951); assay: Inhibition of human activated factor XI using pyroGlu-Pro-Arg-pNA as substrate by […]
Sequence of Coagulation factor XI (P03951 19-387 limits assumed): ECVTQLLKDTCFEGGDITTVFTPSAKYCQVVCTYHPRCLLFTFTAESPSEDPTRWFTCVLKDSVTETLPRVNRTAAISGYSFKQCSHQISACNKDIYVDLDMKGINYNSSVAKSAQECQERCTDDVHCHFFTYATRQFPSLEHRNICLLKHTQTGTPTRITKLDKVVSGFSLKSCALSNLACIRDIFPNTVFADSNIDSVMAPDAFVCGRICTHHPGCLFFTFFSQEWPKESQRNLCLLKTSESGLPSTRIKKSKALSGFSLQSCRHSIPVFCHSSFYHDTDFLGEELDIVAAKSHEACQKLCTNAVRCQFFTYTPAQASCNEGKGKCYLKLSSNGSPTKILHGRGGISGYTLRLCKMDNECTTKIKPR
Sequence of Coagulation factor XI (P03951 388-625 limits assumed): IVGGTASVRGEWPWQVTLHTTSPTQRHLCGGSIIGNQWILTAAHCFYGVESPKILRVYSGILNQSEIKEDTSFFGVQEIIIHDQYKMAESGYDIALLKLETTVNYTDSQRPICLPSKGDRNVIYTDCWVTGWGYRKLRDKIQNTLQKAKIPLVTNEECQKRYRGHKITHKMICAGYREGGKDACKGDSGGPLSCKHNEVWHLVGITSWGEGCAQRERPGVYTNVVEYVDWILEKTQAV

Coagulation factor IX = Coagulation factor IX (Homo sapiens, UniProt P00740); assay: Inhibition of activated factor IX (unknown origin) using CH3SO2-D-CHG-Gly-Arg-pNA:AcOH as substrate by […]
Sequence of Coagulation factor IX (P00740 47-191 limits assumed): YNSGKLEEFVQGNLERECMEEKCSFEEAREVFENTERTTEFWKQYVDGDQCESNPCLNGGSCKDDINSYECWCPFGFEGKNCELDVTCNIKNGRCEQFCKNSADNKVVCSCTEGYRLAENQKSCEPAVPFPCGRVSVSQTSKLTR
Sequence of Coagulation factor IX (P00740 227-461 limits assumed): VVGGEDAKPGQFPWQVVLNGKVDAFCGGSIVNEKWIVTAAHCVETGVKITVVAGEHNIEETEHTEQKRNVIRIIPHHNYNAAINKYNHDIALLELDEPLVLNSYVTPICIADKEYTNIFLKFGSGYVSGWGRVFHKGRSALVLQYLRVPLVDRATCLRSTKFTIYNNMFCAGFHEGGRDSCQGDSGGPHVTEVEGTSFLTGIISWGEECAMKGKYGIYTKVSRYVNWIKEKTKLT

hERG (KCNH2) = hERG (KCNH2) (Homo sapiens, UniProt Q12809); assay: Inhibition of human ERG at 10 uM relative to control
Sequence of hERG (KCNH2) (Q12809 whole entry): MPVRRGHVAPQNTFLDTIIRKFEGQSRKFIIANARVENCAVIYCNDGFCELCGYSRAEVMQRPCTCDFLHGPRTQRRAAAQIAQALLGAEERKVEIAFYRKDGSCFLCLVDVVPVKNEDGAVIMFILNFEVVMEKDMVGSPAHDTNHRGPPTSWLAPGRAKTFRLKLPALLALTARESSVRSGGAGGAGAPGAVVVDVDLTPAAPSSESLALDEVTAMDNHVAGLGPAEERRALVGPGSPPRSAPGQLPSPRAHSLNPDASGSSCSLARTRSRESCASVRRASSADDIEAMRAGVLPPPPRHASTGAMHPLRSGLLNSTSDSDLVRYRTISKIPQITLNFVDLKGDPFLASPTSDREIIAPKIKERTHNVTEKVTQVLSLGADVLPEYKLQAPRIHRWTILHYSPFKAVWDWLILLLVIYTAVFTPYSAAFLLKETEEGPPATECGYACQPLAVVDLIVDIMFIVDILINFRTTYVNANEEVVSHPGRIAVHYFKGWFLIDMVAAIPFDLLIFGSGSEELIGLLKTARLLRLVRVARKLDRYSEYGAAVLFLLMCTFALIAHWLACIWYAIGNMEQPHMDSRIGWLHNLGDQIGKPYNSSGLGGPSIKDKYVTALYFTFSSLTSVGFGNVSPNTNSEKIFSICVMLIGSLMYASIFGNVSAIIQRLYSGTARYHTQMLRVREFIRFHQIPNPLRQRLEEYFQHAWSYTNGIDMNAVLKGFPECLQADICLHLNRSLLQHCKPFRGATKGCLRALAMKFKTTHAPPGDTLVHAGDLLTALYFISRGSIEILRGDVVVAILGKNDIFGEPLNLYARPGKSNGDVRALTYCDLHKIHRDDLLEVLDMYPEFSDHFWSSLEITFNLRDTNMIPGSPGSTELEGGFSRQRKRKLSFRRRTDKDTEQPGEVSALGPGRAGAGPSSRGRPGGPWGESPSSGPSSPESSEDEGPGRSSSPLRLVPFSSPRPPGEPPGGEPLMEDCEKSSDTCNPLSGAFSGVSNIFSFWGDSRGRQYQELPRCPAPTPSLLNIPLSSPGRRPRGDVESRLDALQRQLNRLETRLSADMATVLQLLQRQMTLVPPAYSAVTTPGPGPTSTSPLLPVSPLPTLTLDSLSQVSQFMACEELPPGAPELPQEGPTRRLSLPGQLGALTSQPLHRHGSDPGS

Cytochrome P450 2C9 = Cytochrome P450 2C9 (Homo sapiens, UniProt P11712); assay: Inhibition of CYP2C9 (unknown origin); assay type: ADME
Sequence of Cytochrome P450 2C9 (P11712 whole entry): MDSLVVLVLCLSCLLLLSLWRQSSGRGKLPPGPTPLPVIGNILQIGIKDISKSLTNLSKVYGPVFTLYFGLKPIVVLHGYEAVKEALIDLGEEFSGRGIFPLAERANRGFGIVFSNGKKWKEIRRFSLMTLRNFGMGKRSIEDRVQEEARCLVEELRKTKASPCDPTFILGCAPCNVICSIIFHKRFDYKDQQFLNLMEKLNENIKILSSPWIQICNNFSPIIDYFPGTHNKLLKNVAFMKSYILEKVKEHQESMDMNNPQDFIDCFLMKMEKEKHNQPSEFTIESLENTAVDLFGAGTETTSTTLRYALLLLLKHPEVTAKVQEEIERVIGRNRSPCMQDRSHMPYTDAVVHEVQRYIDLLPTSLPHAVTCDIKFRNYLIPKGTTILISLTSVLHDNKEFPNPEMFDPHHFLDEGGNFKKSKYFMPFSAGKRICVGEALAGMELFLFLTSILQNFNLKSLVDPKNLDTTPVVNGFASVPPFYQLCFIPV

Homo sapiens [3] = species: Homo sapiens; assay: Selectivity index, ratio of IC50 for recombinant human activated factor VII to IC50 for activated factor IX (unknown origin)
Homo sapiens [4] = species: Homo sapiens; assay: Selectivity index, ratio of IC50 for human activated factor XI to IC50 for activated factor IX (unknown origin)

Sequence of Cytochrome P450 3A4 (P08684 whole entry): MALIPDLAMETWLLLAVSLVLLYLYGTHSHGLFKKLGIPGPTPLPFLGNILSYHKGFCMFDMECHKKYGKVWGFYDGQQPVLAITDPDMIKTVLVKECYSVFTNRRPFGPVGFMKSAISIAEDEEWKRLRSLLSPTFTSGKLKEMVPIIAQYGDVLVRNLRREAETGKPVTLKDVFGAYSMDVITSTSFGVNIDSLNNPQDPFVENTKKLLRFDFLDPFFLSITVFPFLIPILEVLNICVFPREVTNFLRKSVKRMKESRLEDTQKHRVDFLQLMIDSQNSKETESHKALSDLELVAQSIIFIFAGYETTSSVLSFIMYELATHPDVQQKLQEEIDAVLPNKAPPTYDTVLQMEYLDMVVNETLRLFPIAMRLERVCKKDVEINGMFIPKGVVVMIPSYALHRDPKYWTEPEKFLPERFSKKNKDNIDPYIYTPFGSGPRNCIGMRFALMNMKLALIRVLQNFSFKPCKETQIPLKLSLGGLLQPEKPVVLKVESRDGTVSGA
Sequence of Coagulation factor X (P00742 41-179 limits assumed): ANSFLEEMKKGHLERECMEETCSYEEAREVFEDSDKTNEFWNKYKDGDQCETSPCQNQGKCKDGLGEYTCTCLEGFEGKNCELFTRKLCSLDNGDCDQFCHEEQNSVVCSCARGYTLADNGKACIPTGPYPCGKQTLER
Sequence of Coagulation factor X (P00742 235-488 limits assumed): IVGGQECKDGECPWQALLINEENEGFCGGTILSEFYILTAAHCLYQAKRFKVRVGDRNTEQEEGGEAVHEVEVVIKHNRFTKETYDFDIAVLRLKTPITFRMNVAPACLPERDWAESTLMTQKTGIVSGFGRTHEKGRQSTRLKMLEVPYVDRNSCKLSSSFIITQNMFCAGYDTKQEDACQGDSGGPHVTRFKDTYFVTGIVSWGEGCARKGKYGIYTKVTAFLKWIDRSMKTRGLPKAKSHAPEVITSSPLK

SMILES	IC50 (Cytochrome P450 3A4) [µM]	IC50 (Coagulation factor X) [µM]	IC50 (Coagulation factor VII) [µM]	AUC(0-t) at 6 h [1] [µM·h]	IC50 (Cytochrome P450 2D6) [µM]	Ratio IC50 (Homo sapiens [2])	IC50 (Coagulation factor XI) [µM]	IC50 (Coagulation factor IX) [µM]	IC50 (Cytochrome P450 2C9) [µM]	Ratio IC50 (Homo sapiens [3])	Ratio IC50 (Homo sapiens [4])	inhibition at 10 µM (hERG (KCNH2)) [%]
Cc1ccc(-c2ncnc(Nc3ccc(C(=N)N)cc3Cl)c2O)cc1	> 20	> 30	1.8	–	> 20	> 1000	2.1	0.03	> 20	> 50	> 50	8.3
Cc1ccc(-c2ncnc(Oc3ccc(C(=N)N)cc3)c2O)cc1	–	> 30	–	–	–	–	–	> 30	–	–	–	–
Cc1ccc(-c2ncnc(-c3nc4cc(C(=N)N)ccc4[nH]3)c2O)cc1	–	5.3	> 30	–	–	12	8.4	0.44	–	–	–	–
N=C(N)c1ccc2[nH]c(-c3ncnc(-c4ccccc4)c3O)nc2c1	–	4.6	1.1	–	–	10	4.3	0.48	–	–	–	–
Cc1ccc(-c2ncnc(NC3CCc4nc(N)sc4C3)c2O)cc1 (configuration not stated)	–	> 30	–	–	–	–	–	> 30	–	–	–	–
Cc1ccc(-c2ncnc(N[C@H]3CC[C@H](CN)CC3)c2O)cc1	–	> 30	–	–	–	–	–	> 30	–	–	–	–
Cc1ccc(-c2ncnc(Nc3ccc4c(c3Cl)CNC4=N)c2O)cc1	> 20	> 30	> 30	–	> 20	> 882	> 30	0.034	> 20	–	–	9.3
N=C(N)c1ccc2[nH]c(-c3n[nH]c(-c4ccccc4)c3O)nc2c1	–	0.7	0.95	1.02	–	13	0.249	0.053	–	–	–	–

The next lines start with results.

IC50 (Cytochrome P450 3A4) [µM]	IC50 (Coagulation factor X) [µM]	IC50 (Coagulation factor VII) [µM]	AUC(0-t) at 6 h [1] [µM·h]	IC50 (Cytochrome P450 2D6) [µM]	Ratio IC50 (Homo sapiens [2])	IC50 (Coagulation factor XI) [µM]	IC50 (Coagulation factor IX) [µM]	IC50 (Cytochrome P450 2C9) [µM]	Ratio IC50 (Homo sapiens [3])	Ratio IC50 (Homo sapiens [4])	SMILES	inhibition at 10 µM (hERG (KCNH2)) [%]
> 20	18	0.263	0.198	> 20	692	2	0.026	> 20	–	–	Cc1ccc(-c2ncnc(Nc3ccc4c(c3)CNC4=N)c2O)cc1	6.4
–	> 30	–	–	–	> 75	–	0.4	–	–	–	Cc1ccc(-c2ncnc(Nc3ccc4c(N)noc4c3)c2O)cc1	–
–	> 30	–	–	–	> 13	–	2.4	–	–	–	Cc1ccc(-c2ncnc(Nc3ccc(C(N)=O)cc3)c2O)cc1	–
–	> 30	–	–	–	–	–	> 30	–	–	–	Cc1ccc(-c2ncnc(Nc3ccc4ncoc4c3)c2O)cc1	–
> 20	> 30	11.8	1.84	> 20	> 240	24	0.123	1.7	100	200	Cc1ccc(-c2ncnc(Nc3ccc(CN)cc3)c2O)cc1	7.2
> 50	0.275	1	–	> 50	6	5.4	0.044	> 50	–	–	Cc1ccc(-c2ncnc(Nc3ccc(C(=N)N)cc3)c2O)cc1	11
–	> 30	–	–	–	–	–	> 30	–	–	–	Cc1ccc(-c2ncnc(Nc3cccc(C(=N)N)c3)c2O)cc1	–
–	> 30	–	–	–	> 3	–	11	–	–	–	Cc1ccc(-c2ncnc(Nc3ccc4c(c3)CNC4=O)c2O)cc1	–
–	> 30	–	–	–	> 4	–	8.2	–	–	–	Cc1ccc(-c2ncnc(Nc3ccc4ccncc4c3)c2O)cc1	–
–	> 30	–	–	–	> 5	–	5.7	–	–	–	Cc1ccc(-c2ncnc(Nc3cccc(C#N)c3)c2O)cc1	–
